Data set [1] is described as follows: refractive index (Na D-line) (dimensionless). The note with it: 293.1 K; 101.33 kPa; Liquid; Standard Abbe refractometry.
The conditions of data set [2]: 298.15 K; 101.33 kPa; Liquid; Pycnometric method.

We go through two compounds from the NIST ThermoML archive (doi:10.1021/je900366m).

Each structure is given as a SMILES string. ± gives the expanded uncertainty stated by the source.

The refractive index is the speed of light in vacuum divided by its phase velocity in the sample. As a reminder, the mass density is the mass of a sample divided by its volume. Take `CC=C(C)CCCC(C)(C)O` [6-octen-2-ol, 2,6-dimethyl-]: in data set [1], the refractive index is given as 1.4408 ± 0.0004. Also, the mass density in data set [2] stood at 831.8 ± 0.3 kg/m3.
On to `C1COCCO1` [1,4-dioxane], for which, in data set [1], the refractive index is listed as 1.422 ± 0.0004. The mass density in data set [2] is 1025.9 ± 0.4 kg/m3.
